From patent US20230364153A1, “METHOD FOR DIRECT REPROGRAMMING FROM SOMATIC CELLS INTO PANCREATIC BETA CELLS BY USING MICRORNA, AND DIFFERENTIATION COMPOSITION” (Research & Business Foundation Sungkyunkwan University, priority 2020, published 2023)

Columns and labels:
[1] = system: mouse embryonic fibroblasts (MEFs); assay: qRT-PCR of pancreatic lineage markers during three-stage direct reprogramming of MEFs; format: cell-based; details: stage-1 cells, single miRNA transfected, relative to the mimic (FIG. 2a)
Procedure: (§1) MEFs (5×10^4 cells/well per 12-well plate) were transfected using the jetMESSENGER (Polyplus-Transfection, Illkirch, France) reagent according to the manufacturer's instructions. The miRNA to be infected (200 nM) (QIAGEN, Hilden, Germany) was diluted in mRNA buffer and 2 μL of the jetMESSENGER reagent was added thereto. The mixture was incubated at room temperature for 20 minutes and then added to MEFs, and 24 hours thereafter, a stage-specific medium was added thereto.
For direct reprogramming of cells, knockout DMEM (KO-DMEM) (Gibco) was used as a basal medium. The knockout DMEM includes 15% knockout serum replacement (Gibco, Thermo Fisher Scientific, Inc., Waltham, MA, USA), 5% FBS (exosome depleted), 1% GlutaMax (Gibco, Thermo Fisher Scientific, Inc., Waltham, MA, USA), 1% Non-Essential Amino Acids (NEAA, Gibco, Thermo Fisher Scientific, Inc., Waltham, MA, USA), and 0.5 mM β-ME (Sigma Aldrich, Inc., Saint Louis, MO, USA).
The three-stage differentiation protocol of the present disclosure is as follows: Stage 1, differentiation from MEFs into pancreatic endoderm cells; Stage 2, differentiation of pancreatic endoderm cells into pancreatic progenitor-like cells; Stage 3, differentiation from pancreatic progenitor-like cells into beta-cell-like cells.
First, 5×10^4 MEF cells/well were seeded in a 12-well tissue culture plate of DMEM containing 10% FBS and 1×P/S for one day. The next day, a Stage 1 differentiation medium was added thereto. The Stage 1 differentiation medium contains 1 μM Bix-01294 (MedchemExpress, Monmouth Junction, NJ, USA), 280 μM 2-phospho-L-ascorbic acid (pVC) Sigma Aldrich, Inc., Saint Louis, MO, USA), and 50 ng/mL activin A (R&D Systems, Minneapolis, MI, USA). After addition of the medium, cells were maintained for 6 days. The medium used was replaced every 3 days. After 6 days, a Stage 2 differentiation medium was added for 4 days. […]
Statistical significance was determined by a two-way, paired student's t-test. […]

[2] = system: mouse embryonic fibroblasts (MEF); assay: Proliferation / morphology of MEFs by bright field microscopy in stage-1 differentiation; format: cell-based; details: after 48 hours (FIG. 3c)
Procedure: FIGS. 3a to 3c confirm the proliferative ability of mouse embryonic fibroblasts (MEF) following transfection with a miRNA mimic and combinations of miRNAs (miR-127, miR-709, and miR-19b) of the present disclosure.
as §1

| Substance | induction of Pdx1 expression [1] [fold] | cell proliferation [2] |
| --- | --- | --- |
| miR-19b: microRNA, SEQ ID NO: 5, ugugcaaauccaugcaaaacuga (UGUGCAAAUCCAUGCAAAACUGA; listed as RNA, chemistry not given here) | 1.6 | highest cell proliferation |
| miR-127: microRNA, SEQ ID NO: 1, CUGAAGCUCAGAGGGCUCUGAU | 3.9 |  |
| miR-709: microRNA, SEQ ID NO: 2, GGAGGCAGAGGCAGGAGGA (listed as RNA, chemistry not given here) | 3.2 |  |
